For 23 molecules, IC50 results are on record in patent US12180207B2 (ARRAY BIOPHARMA INC., priority 2018, dated 2024).

In the experiment the target is dephosphorylated FGFR2 (Homo sapiens (Human), UniProt P21802). Put plainly: FGFR enzyme binding assay (HTRF tracer displacement), FGFR2. As to conditions: 5 nM dephosphorylated FGFR2, average of multiple determinations if made. How it is done: The potency of compounds inhibiting human isoforms of FGFR kinase was determined using Life Technologies' Homogeneous Time Resolved Fluorescence (HTRF)-based binding assay technology. […] After a 60 minute incubation at 22° C., the extent of tracer displacement was determined using a PerkinElmer EnVision multimode plate reader via HTRF dual wavelength detection, and the percent of control (POC) was calculated using a ratiometric emission factor. One hundred POC was determined using no test compound, and 0 POC was determined in the presence of 1 μM of an appropriate control inhibitor.
Chain of dephosphorylated FGFR2 (P21802 22-821): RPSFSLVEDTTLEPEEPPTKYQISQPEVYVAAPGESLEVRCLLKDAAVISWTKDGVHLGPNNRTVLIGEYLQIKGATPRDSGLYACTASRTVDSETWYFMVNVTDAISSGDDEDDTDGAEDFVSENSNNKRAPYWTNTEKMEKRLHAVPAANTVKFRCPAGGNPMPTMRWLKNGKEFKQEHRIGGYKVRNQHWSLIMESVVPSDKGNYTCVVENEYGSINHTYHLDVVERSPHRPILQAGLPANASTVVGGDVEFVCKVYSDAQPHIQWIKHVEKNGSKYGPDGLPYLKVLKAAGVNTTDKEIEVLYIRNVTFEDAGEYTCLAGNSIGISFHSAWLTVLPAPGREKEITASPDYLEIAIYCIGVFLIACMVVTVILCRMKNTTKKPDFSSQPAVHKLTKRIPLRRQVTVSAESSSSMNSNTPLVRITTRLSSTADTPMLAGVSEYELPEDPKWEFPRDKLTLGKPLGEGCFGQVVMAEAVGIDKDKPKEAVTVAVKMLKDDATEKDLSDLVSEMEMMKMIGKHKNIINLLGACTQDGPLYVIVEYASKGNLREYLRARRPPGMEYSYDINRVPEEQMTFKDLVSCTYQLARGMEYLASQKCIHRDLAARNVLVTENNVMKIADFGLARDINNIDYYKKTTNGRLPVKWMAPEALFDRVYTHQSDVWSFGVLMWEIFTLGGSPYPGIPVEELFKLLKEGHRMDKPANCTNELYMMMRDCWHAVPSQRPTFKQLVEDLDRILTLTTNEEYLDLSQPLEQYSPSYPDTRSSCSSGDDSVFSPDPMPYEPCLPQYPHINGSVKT

In turn, `COc1cc(-c2cnn(C3CCN(C(=O)C4CN(C(=O)/C=C/CN5CC[C@@H](F)C5)C4)CC3)c2)cn2ncc(C#N)c12` [Example 183, (R,E)-6-(1-(1-(1-(4-(3-fluoropyrrolidin-1-yl)but-2-enoyl)azetidine-3-carbonyl)piperidin-4-yl)-1H-pyrazol-4-yl)-4-methoxypyrazolo[1,5-a]pyridine-3-carbonitrile] showed an IC50 of 19 nM.
`COc1cc(-c2c(C)nn(C3CCN(C(=O)C4(F)CN(C(=O)/C=C/CN(C)C)C4)CC3)c2C)cn2ncc(C#N)c12` [Example 161, (E)-6-(1-(1-(1-(4-(dimethylamino)but-2-enoyl)-3-fluoroazetidine-3-carbonyl)piperidin-4-yl)-3,5-dimethyl-1H-pyrazol-4-yl)-4-methoxypyrazolo [1,5-a]pyridine-3-carbonitrile]: the IC50 worked out at 44 nM.
Under `COc1cc(-c2cnn(C3CCN(C(=O)C4CN(C(=O)/C=C/CN(C)C)C4)CC3)c2C)cn2ncc(C#N)c12` [Example 152, (E)-6-(1-(1-(1-(4-(dimethylamino)but-2-enoyl)azetidine-3-carbonyl)piperidin-4-yl)-5-methyl-1H-pyrazol-4-yl)-4-methoxypyrazolo [1,5-a]pyridine-3-carbonitrile] stands 49 nM; under `COc1cc(-c2cnn(C3CCN(C(=O)C4CN(C(=O)C#CCO)C4)CC3)c2)cn2ncc(C#N)c12` [Example 179, 6-(1-(1-(1-(4-hydroxybut-2-ynoyl)azetidine-3-carbonyl)piperidin-4-yl)-1H-pyrazol-4-yl)-4-methoxypyrazolo[1,5-a]pyridine-3-carbonitrile], 6 nM.
Under `COc1cc(-c2cnn(C3CCN(C(=O)C4CN(C(=O)/C=C/CCl)C4)CC3)c2)cn2ncc(C#N)c12` [Example 181, (E)-6-(1-(1-(1-(4-chlorobut-2-enoyl)azetidine-3-carbonyl)piperidin-4-yl)-1H-pyrazol-4-yl)-4-methoxypyrazolo[1,5-a]pyridine-3-carbonitrile] stands 12 nM.
In the case of `COc1cc(-c2nn(C3CCN(C(=O)C4(F)CN(C(=O)/C=C/CN(C)C)C4)CC3)nc2C)cn2ncc(C#N)c12` [Example 163, (E)-6-(2-(1-(1-(4-(dimethylamino)but-2-enoyl)-3-fluoroazetidine-3-carbonyl)piperidin-4-yl)-5-methyl-2H-1,2,3-triazol-4-yl)-4-methoxypyrazolo [1,5-a]pyridine-3-carbonitrile], the concentration for half-maximal inhibition (IC50) is 125 nM.
To `C=CC(=O)N1CC(OC)(C(=O)N2CCC(n3nc(C)c(-c4cc(OC)c5c(C#N)cnn5c4)c3C)CC2)C1` [Example 95, 6-(1-(1-(1-acryloyl-3-methoxyazetidine-3-carbonyl)piperidin-4-yl)-3,5-dimethyl-1H-pyrazol-4-yl)-4-methoxypyrazolo[1,5-a]pyridine-3-carbonitrile] belongs 155 nM.
Molecule `C=CC(=O)N1CCN(C(=O)N2CCC(n3cc(-c4cc(OC)c5c(C#N)cnn5c4)cn3)CC2)C[C@@H]1CC#N` [Example 135, (S)-6-(1-(1-(4-acryloyl-3-(cyanomethyl)piperazine-1-carbonyl)piperidin-4-yl)-1H-pyrazol-4-yl)-4-methoxypyrazolo[1,5-a]pyridine-3-carbonitrile] yielded a half-inhibitory concentration (IC50) of 13 nM.
Under `CC#CC(=O)N1CC(F)(C(=O)N2CCC(n3ncc(-c4cc(OC)c5c(C#N)cnn5c4)c3C)CC2)C1` [Example 156, 6-(1-(1-(1-(but-2-ynoyl)-3-fluoroazetidine-3-carbonyl)piperidin-4-yl)-5-methyl-1H-pyrazol-4-yl)-4-methoxypyrazolo [1,5-a]pyridine-3-carbonitrile] stands 26 nM.
In turn, `COc1cc(-c2cnn(C3CCN(C(=O)C4CN(C(=O)/C=C/CN5CCOCC5)C4)CC3)c2)cn2ncc(C#N)c12` [Example 184, (E)-4-methoxy-6-(1-(1-(1-(4-morpholinobut-2-enoyl)azetidine-3-carbonyl)piperidin-4-yl)-1H-pyrazol-4-yl)pyrazolo[1,5-a]pyridine-3-carbonitrile] returned a 50% inhibitory concentration (IC50) of 20 nM.
To `C=CC(=O)N1CC(OC)(C(=O)N2CCC(n3ncc(-c4cc(OC)c5c(Cl)cnn5c4)c3C)CC2)C1` [Example 117, 1-(3-(4-(4-(3-chloro-4-methoxypyrazolo[1,5-a]pyridin-6-yl)-5-methyl-1H-pyrazol-1-yl)piperidine-1-carbonyl)-3-methoxyazetidin-1-yl)prop-2-en-1-one] belongs 103 nM; to `CCc1c(-c2cc(OC)c3c(C#N)cnn3c2)cnn1C1CCN(C(=O)C2(F)CN(C(=O)/C=C/CN(C)C)C2)CC1` [Example 162, (E)-6-(1-(1-(1-(4-(dimethylamino)but-2-enoyl)-3-fluoroazetidine-3-carbonyl)piperidin-4-yl)-5-ethyl-1H-pyrazol-4-yl)-4-methoxypyrazolo [1,5-a]pyridine-3-carbonitrile], 462 nM.
Under `COc1cc(-c2cnn(C3CCN(C(=O)C4(C)CN(C(=O)/C=C/CN(C)C)C4)CC3)c2C)cn2ncc(C#N)c12` [Example 157, (E)-6-(1-(1-(1-(4-(dimethylamino)but-2-enoyl)-3-methylazetidine-3-carbonyl)piperidin-4-yl)-5-methyl-1H-pyrazol-4-yl)-4-methoxypyrazolo [1,5-a]pyridine-3-carbonitrile] stands 6 nM; under `COc1cc(-c2cnn(C3CCN(CC4(OC)CN(C(=O)/C=C/CN(C)C)C4)CC3)c2C)cn2ncc(C#N)c12` [Example 159, (E)-6-(1-(1-((1-(4-(dimethylamino)but-2-enoyl)-3-methoxyazetidin-3-yl)methyl)piperidin-4-yl)-5-methyl-1H-pyrazol-4-yl)-4-methoxypyrazolo [1,5-a]pyridine-3-carbonitrile], 24 nM; under `COc1cc(-c2cnn(C3CCN(CC4(OC)CN(C(=O)/C=C/CN(C)C)C4)CC3)c2C)cn2ncc(Cl)c12` [Example 173, (E)-1-(3-((4-(4-(3-chloro-4-methoxypyrazolo [1,5-a]pyridin-6-yl)-5-methyl-1H-pyrazol-1-yl)piperidin-1-yl)methyl)-3-methoxyazetidin-1-yl)-4-(dimethylamino)but-2-en-1-one], 45 nM.
Under `C=CC(=O)N1CC(CN2CCC(n3ncc(-c4cc(OC)c5c(Cl)cnn5c4)c3C)CC2)C1(C)C` (centres unmarked) [Example 120, 1-(3-((4-(4-(3-chloro-4-methoxypyrazolo[1,5-a]pyridin-6-yl)-5-methyl-1H-pyrazol-1-yl)piperidin-1-yl)methyl)-2,2-dimethylazetidin-1-yl)prop-2-en-1-one] stands 84 nM; under `C=CC(=O)N1CC(CN2CCC(n3ncc(-c4cc(OC)c5c(C#N)cnn5c4)c3C)CC2)C1(C)C` (centres unmarked) [Example 151, 6-(1-(1-((1-acryloyl-2,2-dimethylazetidin-3-yl)methyl)piperidin-4-yl)-5-methyl-1H-pyrazol-4-yl)-4-methoxypyrazolo [1,5-a]pyridine-3-carbonitrile], 38 nM.
Regarding `COc1cc(-c2cnn(C3CN(C(=O)C4(F)CN(C(=O)/C=C/CN(C)C)C4)C3)c2C)cn2ncc(C#N)c12` [Example 160, (E)-6-(1-(1-(1-(4-(dimethylamino)but-2-enoyl)-3-fluoroazetidine-3-carbonyl)azetidin-3-yl)-5-methyl-1H-pyrazol-4-yl)-4-methoxypyrazolo [1,5-a]pyridine-3-carbonitrile], the IC50 was determined as 33 nM.
To `COc1cc(-c2cnn(C3CCN(C(=O)C4(OC)CN(C(=O)/C=C/CN(C)C)C4)CC3)c2C)cn2ncc(Cl)c12` [Example 171, (E)-1-(3-(4-(4-(3-chloro-4-methoxypyrazolo [1,5-a]pyridin-6-yl)-5-methyl-1H-pyrazol-1-yl)piperidine-1-carbonyl)-3-methoxyazetidin-1-yl)-4-(dimethylamino)but-2-en-1-one] belongs 41 nM.
Under `COc1cc(-c2cnn(C3CCN(C(=O)C4CN(C(=O)/C=C/CO)C4)CC3)c2)cn2ncc(C#N)c12` [Example 141, (E)-6-(1-(1-(1-(4-hydroxybut-2-enoyl)azetidine-3-carbonyl)piperidin-4-yl)-1H-pyrazol-4-yl)-4-methoxypyrazolo [1,5-a]pyridine-3-carbonitrile] stands 18 nM; under `C=CC(=O)N1CC(CN2CCC(n3ncc(-c4cc(OC)c5c(Cl)cnn5c4)c3C)CC2)C1` [Example 118, 1-(3-((4-(4-(3-chloro-4-methoxypyrazolo[1,5-a]pyridin-6-yl)-5-methyl-1H-pyrazol-1-yl)piperidin-1-yl)methyl)azetidin-1-yl)prop-2-en-1-one], 56 nM.
Under `COc1cc(-c2ccc(N3CCN(C(=O)C4(F)CN(C(=O)/C=C/CN(C)C)C4)CC3)nc2C)cn2ncc(C#N)c12` [Example 168, (E)-6-(6-(4-(1-(4-(dimethylamino)but-2-enoyl)-3-fluoroazetidine-3-carbonyl)piperazin-1-yl)-2-methylpyridin-3-yl)-4-methoxypyrazolo [1,5-a]pyridine-3-carbonitrile] stands 219 nM; under `C=CC(=O)N1CC(C(=O)N2C[C@@H]3C[C@H]2CN3c2ccc(-c3cc(OC)c4c(C#N)cnn4c3)cn2)C1` [Example 106, 6-(6-((1S,4S)-5-(1-acryloylazetidine-3-carbonyl)-2,5-diazabicyclo[2.2.1]heptan-2-yl)pyridin-3-yl)-4-methoxypyrazolo[1,5-a]pyridine-3-carbonitrile], 30 nM.
